Laboratory results from patent publication US20250032385A1, “FUNCTIONAL COMPOSITION FOR ALOPECIA COMPRISING CENTIPEDA MINIMA-DERIVED EXTRACT” (priority 2021, published 2025).

Legend:
[1] = system: mouse macrophage RAW 264.7 cells; assay type: cell-based; conditions: for NO production as the concentration increased: 100 ng/ml LPS, 1.25, 2.5, 5 and 10 μg/ml; for NO production as the concentration increased / Concentration at which the production of NO was the lowest: 24 hours; for Concentration at which the production of NO was the lowest: tested 1.25-10 μg/ml; for Effect relative to the same amount Brevilin-A (potency value of inflammation inhibition rate): from NO production potency formulas, FIG. 12
Description: The amount of NO produced by the cultured RAW 264.7 cells and present in the culture medium was measured using a NO detection kit (cat. No. 21021, Intron) based on the Griess reaction. 100 μl of the culture medium estimated to contain NO was dispensed into 96-well plates, and then 50 μl of N1 buffer (sulfanilamide) was added thereto and reacted at room temperature for 10 minutes. Next, 50 μl of N2 buffer (naphthylethylenediamine) was added thereto and reacted at room temperature for 10 minutes, and then the absorbance was measured at 540 nm. The amount of NO produced was determined using a standard calibration curve obtained using a nitrite standard. In addition, a positive control group (CTL) was treated with only LPS and fresh medium not containing any of the components, and a negative control group was treated with only 100 ng/ml LPS. The measurement results are presented as the average value of three repeated experiments.

[2] = system: mouse macrophage RAW 264.7 cells; conditions: 24 hours; for Cell viability compared with positive control group (CTL): 10 μg/mL; for Cell viability as the concentration increased (cytotoxicity): 1.25, 2.5, 5 and 10 μg/ml; for Concentration at which the cell viability was the highest: tested 1.25-10 μg/ml
Description: In addition, for comparison, an NO production inhibition measurement experiment and a cell viability measurement experiment were also conducted on the synthetic anti-inflammatory agent dexamethasone.
The experiments were conducted using mouse macrophage RAW 264.7 cells as an inflammatory model. RAW 264.7 cells were cultured in a 100 mm cell culture dish with DMEM containing 10% fetal bovine serum and 1% penicillin in a 5% CO2 incubator. Cells that reached confluence were detached using a scraper and subcultured.
Specifically, for the experiment on cell viability, RAW 264.7 cells were dispensed on a 60-mm plate at a density of 2×10^6 cells/dish, and attached to the plate for 24 hours. Then, the cells were treated with fresh media containing each component at concentrations of 1.25, 2.5, 5 and 10 μg/ml and cultured for 24 hours. The number of viable cells was counted by measuring the dehydrogenase present in the mitochondria within the cultured cells. EZ-CYTOX reagent (EZ-1000, Daeilab) was used, and based on the absorbance measured at 450 nm, the cell viability for each concentration was calculated according to the following equation: Cell viability=(absorbance of CMX-treated group/absorbance of untreated group)×100.

| SMILES | NO production as the concentration increased [1] | Concentration at which the production of NO was the lowest ([1]; 100 ng/ml LPS) | Effect relative to the same amount Brevilin-A (potency value of inflammation inhibition rate) [1] | Cell viability compared with positive control group (CTL) [2] | Cell viability as the concentration increased (cytotoxicity) [2] | NO production compared with positive control group (CTL) ([1]; 5 μg/mL, 100 ng/ml LPS) | Concentration at which the cell viability was the highest [2] |
| --- | --- | --- | --- | --- | --- | --- | --- |
| CC(C)C(=O)O[C@H]1[C@@H]2[C@H](C)C(=O)O[C@@H]2C[C@@H](C)[C@@H]2C=CC(=O)[C@]21C [Arnicolide C] | decreased | 10 µg/mL | 0.7 | difference in cell viability from the positive control group (CTL) was significantly small | no significant change | – | – |
| C=C(C)C(=O)O[C@H]1[C@@H]2[C@H](C)C(=O)O[C@@H]2C[C@@H](C)[C@@H]2C=CC(=O)[C@]21C [Arnicolide D] | decreased | – | 1.5 | – | no significant change | lower than that in the positive control group (CTL) | 5 µg/mL |
| C/C=C(/C)C(=O)O[C@H]1[C@@H]2[C@H](C)C(=O)O[C@@H]2C[C@@H](C)[C@@H]2C=CC(=O)[C@]21C [Brevilin A] | decreased | 5 µg/mL | 1.0 | – | no significant change | – | 5 µg/mL |
| C/C=C(\C)C(=O)O[C@H]1[C@@H]2[C@H](C)C(=O)O[C@@H]2C[C@@H](C)[C@@H]2C=CC(=O)[C@]21C [Microhelenin C] | decreased | 10 µg/mL | 0.8 | somewhat higher than that in the positive control group (CTL) | no significant change | – | – |
